This passage reports melting point results from a melting point compilation (Tetko et al.).

`N#Cc1ccccc1OC1CCOCC1` gave a melting point of 51 to 55 °C.
The result for `Cc1nc(/C(C#N)=C\c2ccco2)sc1/N=N/c1ccccc1[N+](=O)[O-]` reads 212 to 213 °C; that for `N#CC(C#N)=C1C(=O)NN(c2ccccc2)C1=O`, 289 °C; that for `CC(C)[Si](Cl)(Cl)Cl`, -87.7 °C.
In the case of `O=C(Cl)c1cccnc1Cl`, the melting point amounted to 40 °C.
Regarding `Nc1n[nH]cc1Br`, the melting point fell in the range of 133 to 135 °C.
The result for `C=C1CCC(O)CC1=CC=C1CCCC2(C)C1CCC2C(C)CCCC(C)C` (stereo not drawn) reads 84.5 °C.
The result for `CSc1c(C#N)c(N)nc2c(/N=N/c3ccc(C(=O)O)cc3)c(N)nn12` reads 305 to 307 °C; that for `c1ccc2c(c1)ccc1[nH]c3ccccc3c12`, 134 °C; that for `Oc1ncc(O)c(O)n1`, 330 °C.
The result for `c1ccc(-c2ccc3ncccc3c2)cc1` reads 110 °C.
Consider `Cc1ccnc2c1ccc1cccnc12`, for which the melting point came to 145 °C.
The result for `CCCCc1nc(CO)c[nH]1` reads 94 to 97 °C.
For the compound `Oc1ccccc1/C=C/c1ccccc1`, the melting point is 147 °C.
The result for `C=C1[C@@H](c2ccccc2)[C@]2(Cl)C(=O)N(C)C(=O)[C@]12Cl` reads 134 °C; that for `S=C(NCCN1CCOCC1)NC1CCCCC1`, 125 to 126 °C.
The result for `CCC1CN2CCC3(C(=O)Nc4ccccc43)C2CC1C(=COC)C(=O)OC` (stereo not drawn) reads 216 °C; that for `NC(Cc1cc(F)cc(F)c1)C(=O)O` (racemic), 243 to 245 °C.
The result for `Cc1ccc(S(=O)(=O)NC(Cc2ccccc2)C(=O)CCl)cc1` (stereo not drawn) reads 105 to 109 °C; that for `O=C1COc2cccnc2N1`, 206 °C; that for `FC(F)(F)c1cc(Cl)c(Cl)c(Cl)c1`, -10 to -8 °C.
Regarding `CCCCCOc1ccc(/N=N/c2ccc(CCCC)cc2)cc1`, the melting point was in the range of 40.5 to 43 °C.
The result for `O=C=Nc1cc(F)cc2c1OCOC2` reads 85 to 86 °C; that for `O=C1CCCCCCCCCCCC1`, 25 °C; that for `COc1cccc(OC)c1`, -52 °C.
The result for `O=C(OCC1c2ccccc2-c2ccccc21)Oc1c(F)c(F)c(F)c(F)c1F` reads 85 °C; that for `Nc1ccc2c(c1)OCCO2`, 28 °C.
The result for `c1ccc(-c2ccc3c4c(c5c(c3c2)CCCC5)CCCC4)cc1` reads 136 °C; that for `O=C(O)Cc1ccc(CBr)cc1`, 179 °C; that for `O=C1C(C(O)c2ccc(Cl)cc2Cl)C(C(F)(F)F)=NN1c1ccccc1` (stereo not drawn), 249 °C.
The compound `IC=CI` showed a melting point of -14 °C.
As to `c1ccc(-c2nc(-c3ccccn3)nc(-c3ccccn3)n2)nc1`, the melting point was 250 °C.
The result for `CC(C)C1CC(=O)CC(=O)C1` reads 80 °C.
The result for `CC(C)(C)c1cc(C(C)(C)C)c([N+](=O)[O-])c(C(C)(C)C)c1` reads 205 to 206 °C; that for `CCc1cccc(Cl)c1`, -55 °C.
The result for `O=C(Nc1ccccn1)C(C(F)(F)F)C(F)(F)F` reads 108 to 110 °C.
As to `CC(Oc1ccc(Cl)cc1Cl)C(=O)O` (stereo not drawn), the melting point amounted to 122 °C.
The result for `CCOc1cccc2cc(C(=O)O)c(=O)oc12` reads 190 to 192 °C; that for `COC(=O)c1ccc(C(=O)OC)c(Br)c1`, 52 to 54 °C; that for `NC(=O)c1cc(F)cc(F)c1`, 156 °C.
`CCOC(=O)NC1C(N(C)C)C2CCC1(C)C2(C)C` (stereo not drawn) came in with a melting point of 237 °C.
The result for `COc1ccc(OC)c2c(=O)c(=O)c12` reads 191 °C.
The result for `COc1ccccc1-c1ccc(C=C2C(=O)OC(C)(C)OC2=O)o1` reads 147 °C.
The result for `BrC(CCC(Br)C(Br)c1ccccc1)C(Br)c1ccccc1` (stereo not drawn) reads 194 °C.
`COc1ccc(C(N)=NO)cc1` showed a melting point of 119 to 121 °C.
`CN(C)c1ccc(C2Nn3c(nnc3-c3cccc([N+](=O)[O-])c3)S2)cc1` (stereo not drawn) registered a melting point of 197 to 199 °C.
The compound `CC(=O)c1cc2cc3c4c(c2oc1=O)CCCN4CCC3` yielded a melting point of 181 to 184 °C.
The result for `Cc1ccc(-n2ncc(Cl)c(Cl)c2=O)cc1` reads 144 to 146 °C; that for `O=[N+]([O-])c1cccc(S(=O)(=O)OCC2CO2)c1` (stereo not drawn), 61 to 65 °C; that for `Cc1ccc(C(=O)O)c(Cl)n1`, 160 °C.
The result for `Cc1cc(C#N)ccc1Br` reads 53 °C; that for `CNC(=C[N+](=O)[O-])NCCSCc1ccc(CN(C)C)o1`, 69 °C.
The result for `O=C(Nc1ccccc1)c1ccccc1[N+](=O)[O-]` reads 154 °C; that for `CC(=O)OC[C@H]1O[C@@H](Oc2ccc(C)cc2)[C@H](OC(C)=O)[C@@H](OC(C)=O)[C@@H]1OC(C)=O`, 125 to 126 °C.
Consider `CC(=O)CC(=O)CC(C)=O`, for which the melting point is 49 °C.
The result for `C1CC2CC1C1OC21` (stereo not drawn) reads 123 °C; that for `N#Cc1ccc(C=Cc2ccc(C=Cc3ccc(C#N)cc3[N+](=O)[O-])cc2)c([N+](=O)[O-])c1`, 350 °C.
The result for `NCCP(=O)(O)O` reads 296 °C; that for `O=c1c(C2CC(c3ccc(OCc4ccc(C(F)(F)F)cc4)cc3)Cc3ccccc32)c(O)oc2ccccc12` (stereo not drawn), 92.5 °C.
The result for `C=C1C(=O)C23C4CC5C(C)(C)CCC(O)C5(C(OC)O4)C2C(O)CC1C3O` (stereo not drawn) reads 261 °C; that for `O=C(O)C=Cc1ccccc1C(=O)O`, 197 to 202 °C; that for `Fc1cc(Br)c(I)c(Br)c1`, 134 to 137 °C.
In turn, `Clc1ccc2scc(CBr)c2c1` displayed a melting point of 129 to 130 °C.
The result for `CC(=O)Nc1ccc(Cl)cc1[N+](=O)[O-]` reads 98 °C.
As for `O=C(CCl)Nc1ccc(Oc2ccccc2)cc1`, the melting point was in the range of 104 to 106 °C.
As to `COC(=O)c1cc2oc(C=O)cc2n1C`, the melting point was 162 to 163 °C.
Take `O=C(O)CS(=O)(=O)C=Cc1ccccc1`: the melting point lay in the range of 151 to 154 °C.
The result for `COc1cccc(N2C(=O)C=CC2=O)c1` reads 62 to 66 °C.
The result for `c1ccc(/N=N/c2ccccc2NNc2ccccc2)cc1` reads 99 °C; that for `COc1cc(CCNC(=O)CC(C)C)ccc1OCc1ccccc1`, 114 °C.
The result for `CCCCCC(C)(C)C` reads -113 °C.
In turn, `Cc1c(C)c(CCl)c(C)c(C)c1CCl` returned a melting point of 194 °C.
The result for `O=C1OC(c2cc(Br)c(O)c(Br)c2)(c2cc(Br)c(O)c(Br)c2)c2ccccc21` reads 296 °C; that for `C=CC(=O)OCC(C)C`, -61 °C; that for `O=C(COc1ncn(-c2ccc(Cl)cc2)n1)NNC(=S)Nc1ccc(F)cc1`, 181 to 183 °C.
The result for `Nc1c(C(=O)O)sc2nccnc12` reads 250 °C; that for `CC1=C(C=NNC(N)=O)C(=O)C(C(C)C)C=C1` (stereo not drawn), 221 to 222 °C; that for `Cc1noc(C)c1CO`, 76 to 77 °C.
The result for `O=C1c2ccccc2C(=O)C1(CN1CCOCC1)c1ccccc1` reads 88 °C; that for `Cc1cc(Cl)ccc1OCC(=O)O`, 120 °C; that for `CCOC(=O)c1c(=S)ncn2c1[nH]c1ccccc12`, 194 to 198 °C.
In turn, `CC(C)NCC(O)c1ccc([N+](=O)[O-])cc1` (stereo not drawn) gave a melting point of 98 °C.
The result for `N#Cc1ccc(CCc2ccc(C#N)cc2)cc1` reads 198 to 203 °C.
As for `BrCc1cccc(-n2cccc2)c1`, the melting point lay within 54 to 55 °C.
The result for `CC(C)(C)CC(C)(C)c1ccc(O)cc1` reads 84.5 °C; that for `CC(=O)OC1CCC2(C)C(=CCC3C4CC(C)C(=O)C4(C)CCC32)C1` (stereo not drawn), 141 °C.
In the case of `Cc1cc(Cl)cc(Cl)c1N=C=S`, the melting point fell in the range of 57 to 58 °C.
The result for `O=C(O)C=Cc1c[nH]cn1` reads 225 °C.
The result for `CC(=O)OC1(C(C)=O)CCC2C3CC(C(F)(F)F)C4=CC(=O)CCC4(C)C3CCC21C` (stereo not drawn) reads 206 °C; that for `CN(C)c1nc(=O)n(C2CCCCC2)c(=O)n1C`, 116 °C; that for `O=S(=O)(Cl)c1cc(Cl)ccc1Cl`, 38 °C.
The result for `CC1(C)c2cccc(P(C(C)(C)C)C(C)(C)C)c2Oc2c(P(C(C)(C)C)C(C)(C)C)cccc21` reads 155 °C; that for `COC(=O)C(C)(C)C1=CCC2(C)C(CCC3C4CCC(O)C4(C)CCC32)C1` (stereo not drawn), 150 °C; that for `CCOC(=O)C=Cc1ccccc1`, 7 °C.
As to `Fc1cc(Br)c(F)cc1Br`, the melting point was 62 °C.
The result for `C#CC(C)N(C(=O)CCl)c1ccccc1` (stereo not drawn) reads 43.5 °C; that for `Clc1cc(Cl)c(-c2c(Cl)cc(Cl)c(Cl)c2Cl)cc1Cl`, 83 °C; that for `c1ccc(-c2nnc3n2CN(c2ccccc2)CS3)cc1`, 205 °C.
`CCCCCCCc1ccc(O)cc1`: the melting point was 26.5 °C.
The result for `COc1ccc(O)c(C=O)c1` reads 14.5 °C; that for `Oc1c(Br)cc(Br)c(Br)c1Br`, 114 °C; that for `C=C1CC2C3C=C(C)C4=CC(=O)CCC4(C)C3CCC2(C)C1(OC(C)=O)C(C)=O` (stereo not drawn), 224 °C.
The result for `COc1ccccc1C1(C)CCc2oc3c(Br)cc(Br)cc3c2-c2oc(C)cc21` (stereo not drawn) reads 194 °C; that for `c1ccc(N2CSc3nnc(-c4cccnc4)n3C2)cc1`, 214 °C.
The result for `COc1c(Cl)cc([N+](=O)[O-])c(OC)c1C(=O)O` reads 131 °C; that for `CN1CCN(C(=O)OC2c3nccnc3C(=O)N2c2ccc(Cl)cn2)CC1` (stereo not drawn), 178 °C; that for `CC(=O)Nc1ccc(C=Cc2nc3cc([N+](=O)[O-])ccc3n2-c2ccc(C)cc2)cc1`, 249 to 250 °C.
Consider `CCCCCCCCCCCCCCCC(OC)OC`, for which the melting point came out at 10 °C.

For orientation: melting point means the temperature of the solid-liquid transition.
